According to patent publication US20050119288A1, “Dosing schedule for a novel anticancer agent” (Pfizer Inc, priority 2003, published 2005):
Read-outs that look alike come from different tables or passages of the source. Marks after values point to notes of the source that are not given here.

Columns and labels:
[1] = Body weight and tolerability, MDA-MB-453 study; type: in vivo, mice; details: PO
Procedure: (§1) Study Design: Exponentially growing MDA-MB-453 cells (DMEM/F12 with 10% FBS, and pen/strep [Gibco]) were harvested and inoculated SC (5 million cells/animal) into female athymic mice. MDA-MB-453 tumor bearing mice (˜100 mm^3 in size, N=64) were randomized in 8 groups consisting 8 animals each. Animals were treated with vehicle (PO, QD or BID) or the test compound (PO, QD or BID) as described in Table 6. The tumor measurements and body weight changes were obtained on days 1, 3, 7, 10, 14, 17, 21, 24, and 29. Tumor volume was calculated by the following formula: Tumor volume (mm^3)═(W×W)/2×L (L=length & W=width). Blood samples (˜50 μl) were isolated at 0.5, 1, 2, 4 and 8 hrs after dosing on day 29 for PK-analysis. Tumors were isolated at 0.5 hr post-dosing on day 29 for PD-analysis by ELISA.

[2] = Pharmacokinetics in SK-OV-3 tumor-bearing mice; type: in vivo; details: for Cave0-4 h / AUC(0-t) / Cmax: PO; for AUC(0-t) / Cmax: female, athymic, mouse, blood, po; for AUC(0-t): read-out: AUC0-4 h; for Cmax: read-out: Cmax 0.5 h
Procedure: SK-OV-3 cells obtained from ATCC (Rockville, Md.) were grown in McCoy's medium containing 10% fetal bovine serum and pen/strep. Exponentially growing cells were harvested and inoculated SC (5 million cells/animal) into female athymic mice. The tumor measurements and body weight changes were obtained on days 1, 3, 6, 10, 13 and 18. Tumor volume was calculated by the following formula: Tumor volume (mm^3)═(W×W)/2×L (L=length & W=width). Blood samples (˜50 μl) were isolated at 0.5, 1, 2, 4 and 8 hrs after dosing on day 18 for PK-analysis. Tumors were isolated at 0.5 hr post-dosing on day 18 for PD-analysis by ELISA. The p-erbB2 reduction, tumor volume and body weight changes in control and test compound treated animals are shown below in Table 2.

FRE/erbB2 tumors = test: FRE/erbB2 tumor growth in athymic mice; type: in vivo, murine; details: for % GI (% Growth Inhibition): day 7
Source text: The in vivo anti-tumor activity of the compounds for use in the methods of the present invention can be determined by the amount of inhibition of tumor growth by a test compound relative to a control. The tumor growth inhibitory effects of various compounds can be measured according to the method of Corbett T. H., et al., “Tumor Induction Relationships in Development of Transplantable Cancers of the Colon in Mice for Chemotherapy Assays, with a Note on Carcinogen Structure”, Cancer Res., 35, 2434-2439 (1975) and Corbett T. H., et al., “A Mouse Colon-tumor Model for Experimental Therapy”, Cancer Chemother. Rep. (Part 2)”, 5, 169-186 (1975), with slight modifications. Tumors can be induced in the left flank of mice by subcutaneous (sc) injection of 1-5 million log phase cultured tumor cells suspended in 0.1 ml RPMI 1640 medium. After sufficient time has elapsed for the tumors to become palpable (˜100-150 mm^3 in size/5-6 mm in diameter) the test animals (athymic female mice) are treated with test compound (formulated at a concentration of 10 to 15 mg/ml in 5 Gelucire or 0.5% methyl cellulose) by the intravenous (iv) or oral (po) route of administration once or twice daily for 7 to 29 consecutive days. In order to determine an anti-tumor effect, the tumor is measured in millimeters with a Vernier caliper across two diameters and the tumor size (mm^3) is calculated using the formula: Tumor size (mm^3)=(W×W)/2×L (L=length and W=width), according to the methods of Geran, R. I., et al. “Protocols for Screening Chemical Agents and Natural Products Against Animal Tumors and Other Biological Systems”, Third Edition, Cancer Chemother. Rep., 3, 1-104 (1972). Results are expressed as percent inhibition, according to the formula: Inhibition Growth (%)=[100-{(% Growth of Treated/% Growth of Control)×100}]. The flank site of tumor implantation provides reproducible dose/response effects for a variety of chemotherapeutic agents, and the method of measurement (tumor diameter) is a reliable method for assessing tumor growth rates.
(§2) An objective of the pre-clinical investigations was to determine whether the Cmax or area under the curve (AUC) of the test compound is critical for the anti-tumor efficacy. An additional goal was to establish a pharmacokinetics/pharmacodynamics (PK/PD) relationship in the FRE/erbB2 tumor model. The FRE/erbB2 is an engineered murine tumor model, which over-expresses human erbB2 with a trans-membrane mutation.

[3] = system: p-erbB2 (the phosphorylated form of erbB2 receptor); test: p-erbB2 reduction in FRE/erbB2 tumors; type: in vivo, human
Source text: as §2

[4] = target: erbB2 receptor autophosphorylation (Homo sapiens, UniProt P04626); test: p-erbB2 reduction in MDA-MB-453 tumors by ELISA; type: in vivo
Chain of erbB2 receptor autophosphorylation (P04626 23-1255): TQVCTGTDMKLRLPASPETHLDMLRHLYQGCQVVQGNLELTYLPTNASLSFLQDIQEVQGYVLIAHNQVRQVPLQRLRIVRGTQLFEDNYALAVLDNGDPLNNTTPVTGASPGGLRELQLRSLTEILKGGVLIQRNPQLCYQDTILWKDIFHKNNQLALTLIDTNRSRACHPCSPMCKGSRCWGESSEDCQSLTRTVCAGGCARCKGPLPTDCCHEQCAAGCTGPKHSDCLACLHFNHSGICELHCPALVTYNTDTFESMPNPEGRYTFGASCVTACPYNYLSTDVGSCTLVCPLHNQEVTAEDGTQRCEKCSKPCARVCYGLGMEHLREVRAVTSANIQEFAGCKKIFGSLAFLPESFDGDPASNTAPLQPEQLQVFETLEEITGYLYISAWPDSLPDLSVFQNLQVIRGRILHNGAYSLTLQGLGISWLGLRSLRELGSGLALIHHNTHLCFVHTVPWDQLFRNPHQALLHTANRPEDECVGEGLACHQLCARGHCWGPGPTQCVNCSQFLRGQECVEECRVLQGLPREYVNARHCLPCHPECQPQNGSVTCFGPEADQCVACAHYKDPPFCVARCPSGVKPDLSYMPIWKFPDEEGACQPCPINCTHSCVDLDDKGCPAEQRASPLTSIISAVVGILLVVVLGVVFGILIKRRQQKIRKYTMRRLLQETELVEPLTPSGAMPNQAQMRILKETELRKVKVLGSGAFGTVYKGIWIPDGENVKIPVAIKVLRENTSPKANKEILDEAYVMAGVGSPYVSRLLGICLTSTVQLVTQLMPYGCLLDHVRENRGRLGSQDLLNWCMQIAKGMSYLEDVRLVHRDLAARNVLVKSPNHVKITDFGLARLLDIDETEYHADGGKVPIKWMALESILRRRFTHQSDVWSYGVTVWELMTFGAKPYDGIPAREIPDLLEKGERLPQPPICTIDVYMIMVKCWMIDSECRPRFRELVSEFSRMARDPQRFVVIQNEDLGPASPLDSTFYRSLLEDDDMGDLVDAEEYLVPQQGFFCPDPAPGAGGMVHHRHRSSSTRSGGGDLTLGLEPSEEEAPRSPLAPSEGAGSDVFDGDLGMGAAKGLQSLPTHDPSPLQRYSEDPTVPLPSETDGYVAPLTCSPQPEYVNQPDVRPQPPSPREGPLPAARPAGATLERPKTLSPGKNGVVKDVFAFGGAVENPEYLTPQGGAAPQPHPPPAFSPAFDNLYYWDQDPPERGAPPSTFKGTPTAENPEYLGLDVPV
Procedure: as §1

## COCC(=O)NC/C=C/c1ccc2ncnc(Nc3ccc(Oc4ccc(C)nc4)c(C)c3)c2c1 [Test Compound, E-2-Methoxy-N-(3-{4-(3-methyl-4-(6-methyl-pyridin-3-yloxy)-phenylamino)-quinazolin-6-yl}-allyl)-acetamide]
[1]; BID 25 mg/kg
  average body weight Day 1: 22 g
  average body weight Day 29: 23 g
[1]; BID 50 mg/kg
  average body weight Day 1: 23 g
  average body weight Day 29: 24 g
[1]; BID 100 mg/kg
  average body weight Day 1: 23 g
  average body weight Day 29: 25 g
[1]; QD 50 mg/kg
  average body weight Day 1: 23 g
  average body weight Day 29: 25 g
[1]; QD 100 mg/kg
  average body weight Day 1: 23 g
  average body weight Day 29: 25 g
[1]; QD 200 mg/kg
  average body weight Day 1: 22 g
  average body weight Day 29: 24 g
[1]; QD or BID, 29 days
  tolerability, body weight loss or animal mortality: well tolerated and there was no body weight loss or animal mortality
[2]; 25 mg/kg, BID, day 18
  Cave0-4 h: 390 ng/mL
  AUC(0-t): 1560 ng·h/mL
  Cmax: 1780 ng/mL
[2]; 50 mg/kg QD vs 25 mg/kg BID, day 18
  AUC0-4 h and Cave0-4 h, QD group compared to BID dosed group: approximately 2 fold
[2]; 50 mg/kg, BID, day 18
  Cave0-4 h: 1050 ng/mL
  AUC(0-t): 4180 ng·h/mL
  Cmax: 3880 ng/mL
[2]; 50 mg/kg, QD, day 18
  Cave0-4 h: 853 ng/mL
  AUC(0-t): 3410 ng·h/mL
  Cmax: 3640 ng/mL
[2]; 100 mg/kg, BID, day 18
  Cave0-4 h: 2330 ng/mL
  AUC(0-t): 9330 ng·h/mL
  Cmax: 8060 ng/mL
[2]; 100 mg/kg, QD, day 18
  Cave0-4 h: 4080 ng/mL
  AUC(0-t): 16300 ng·h/mL
  Cmax: 12100 ng/mL
[2]; 200 mg/kg QD dosing
  Oral absorption: non-linear
[2]; 200 mg/kg, QD, day 18
  Cave0-4 h: 3780 ng/mL
  AUC(0-t): 15100 ng·h/mL
  Cmax: 10200 ng/mL
[2]; day 18
  Cmax, 50 mg/kg QD compared to 25 mg/kg BID: approximately 2 fold
FRE/erbB2 tumors; 1.4 mg/kg IV, QD, 15 min/day
  Tumor vol. Day 1 (Mean ± SE): 121 ± 24 mm^3
  Tumor vol. Day 7 (Mean ± SE): 749 ± 178 mm^3
  % GI (% Growth Inhibition): 34%
FRE/erbB2 tumors; 1.4 mg/kg IV, QD, 15 min/day, listed as test compound
  % GI (% Growth Inhibition): approximately 34%
FRE/erbB2 tumors; 10.7 mg/kg IV, 4 hr/day
  Tumor vol. Day 1 (Mean ± SE): 117 ± 23 mm^3
  Tumor vol. Day 7 (Mean ± SE): 273 ± 81 mm^3
  % GI (% Growth Inhibition): 76%
FRE/erbB2 tumors; 25 mg/kg PO, QD
  Tumor vol. Day 1 (Mean ± SE): 113 ± 18 mm^3
  Tumor vol. Day 7 (Mean ± SE): 531 ± 101 mm^3
FRE/erbB2 tumors; 25 mg/kg PO, QD, compare to Vehicle (IV) group
  % GI (% Growth Inhibition): 54* %
FRE/erbB2 tumors; 25 mg/kg PO, QD, compare to Vehicle (IV) group, listed as test compound
  % GI (% Growth Inhibition): Approximately 54%
FRE/erbB2 tumors; 25 mg/kg orally once a day, seven days of treatment (FIG. 1)
  FRE tumor volume in treated mice relative to control: about half of the control
FRE/erbB2 tumors; about 10 mg/kg IV for seven days over a four hour period each day (FIG. 2)
  tumor volume increase relative to vehicle control: less than 24%
FRE/erbB2 tumors; rapid infusion of about 1.4 mg/kg daily over about 15 min/day (FIG. 2)
  tumor volume increase relative to vehicle control: less than 66%
[3]; 1.4 mg/kg IV, QD, 15 min/day
  % p-erbB2 reduction: 48%
[3]; 10.7 mg/kg IV, 4 hr/day
  % p-erbB2 reduction: 53%
[3]; 25 mg/kg PO, QD, termination of 7 day study
  % p-erbB2 reduction: 34%
[3]; span over the IV groups 15 min/day and 4 hr/day
  p-erbB2 reduction: 48-53%
[4]; MDA-MB-453, po, 0.5 h, PO, BID 25 mg/kg (Total Daily Dose = 50 mg/kg), 0.5 hr post-dosing on day 29
  inhibition in vivo at 25 mg/kg: 69%
[4]; MDA-MB-453, po, 0.5 h, PO, BID 50 mg/kg (Total Daily Dose = 100 mg/kg), 0.5 hr post-dosing on day 29
  inhibition in vivo at 50 mg/kg: 75%
[4]; MDA-MB-453, po, 0.5 h, PO, BID 100 mg/kg (Total Daily Dose = 200 mg/kg), 0.5 hr post-dosing on day 29
  inhibition in vivo at 100 mg/kg: 79%
[4]; MDA-MB-453, po, 0.5 h, PO, QD 50 mg/kg, 0.5 hr post-dosing on day 29
  inhibition in vivo at 50 mg/kg: 78%
[4]; MDA-MB-453, po, 0.5 h, PO, QD 100 mg/kg, 0.5 hr post-dosing on day 29
  inhibition in vivo at 100 mg/kg: 88%
[4]; MDA-MB-453, po, 0.5 h, PO, QD 200 mg/kg, 0.5 hr post-dosing on day 29
  inhibition in vivo at 200 mg/kg: 92%
[4]; span over QD (50-200 mg/kg) and BID (25-100 mg/kg) dosings
  reduction of p-erbB2: 69-92%
